Reference: patent publication US12216122B2, “Compositions and methods relating to detection, inhibition, and imaging of indoleamine 2,3-dioxygenase 1 (IDO1)” (Regeneron Pharmaceuticals, Inc., priority 2019, dated 2025)
Like-named read-outs stand apart in the source and are kept apart here. Values belong to the compound of their own block, whether it stands above or below them. Numbered stars: 1 amine (or outer) side, 2 acyl side, 3 side chain; on linkers, the order of the positions; unused ones are H or OH. Bridge positions count the residues as written; N and C are the ends. Square brackets hold non-standard residues; d marks the D form. Triazole bridges read from a SMILES are 1,4-linked. Ends that are not written are not given here. Peptide text beside a SMILES is read from it. * marks the point of attachment. Biotinyl(3aR,4R,6aS) = O=C1N[C@@H]2[C@@H](CS[C@@H]2CCCCC(=O)*)N1; NH(CH2CH2O)5CH2CO = O=C(COCCOCCOCCOCCOCCN[*:1])[*:2]; X6 = O=C([C@@H](Cc1ccc(Oc2ccccc2)cc1)N[*:1])[*:2]; Biotin = O=C1N[C@H]2[C@H](CS[C@H]2CCCCC(=O)*)N1; X1 = O=C(CSc1nonc1/C(=N/O)Nc1ccc(F)c(Br)c1)*; PEG8 = NCCOCCOCCOCCOCCOCCOCCOCCOCCC(=O)O; dPhe(4-Me) = Cc1ccc(C[C@@H](N)C(=O)O)cc1; Lys(N3) = [N-]=[N+]=NCCCC[C@H](N)C(=O)O; Phe(4-F) = N[C@@H](Cc1ccc(F)cc1)C(=O)O; PEG6 = NCCOCCOCCOCCOCCOCCOCCC(=O)O; dTle = CC(C)(C)[C@@H](N)C(=O)O; dNMeV = CN[C@@H](C(=O)O)C(C)C; AEEEA = NCCOCCOCCOCC(=O)O; Pra = C#CC[C@H](N)C(=O)O

Key:
[1] = biological target: T1, His-tagged IDO1 human recombinant protein (Homo sapiens, UniProt P14902); experiment: IDO1 ELISA (Affinity Assay): sandwich ELISA, biotinylated ligand immobilized on NEUTRAVIDIN plate; type: binding
T1 construct: purchased BPS Biosciences 71182
Protocol: Protocol: A black 96-well NEUTRAVIDIN® Coated High Binding Capacity plate (15510, Pierce) was coated with 2 μM biotinylated macrocyclic peptide ligand in TBS (25 mM Tris-HCl, 150 mM NaCl, pH 7.6) for 2 h at room temperature. The plate was aspirated and then washed with Wash Buffer (0.05% (v/v) TWEEN® 20 in PBS, 6×). His-tagged IDO1 human recombinant protein (71182, BPS Biosciences) was serially diluted in Wash Buffer (from 200 to 0 nM) and incubated in the designated microwells for 1 h at room temperature. Microwells were aspirated and subsequently washed with Wash Buffer (11×). To detect the bound IDO1 protein, Alkaline Phosphatase (AP)-conjugated Anti-6×HIS TAG® antibody [HIS-1] (ab49746, Abcam) was prepared at 1:10,000 dilution and added to the microwells for 1 h at room temperature. The plate was aspirated and washed with Wash Buffer (5×). ATTOPHOS® AP Fluorescent Substrate System (S1000, Promega) was employed to develop the microwells. Using an excitation wavelength of 430 nm, fluorescent emission at 535 nm was recorded by Beckman Coulter DTX880 photometer. Titration curves were fit using a four-parameter regression curve fitting program to determine EC50 values.
For these assays, a dilution series of His-tagged IDO1 human recombinant protein was captured using the macrocyclic peptide ligands immobilized on a NEUTRAVIDIN®-coated plate. […] The sequences of the peptide ligands are listed in Table 1, where D-amino acids are denoted in lowercase, Me-Trp=1-methyl-L-tryptophan, and F-Phe=4-fluoro-L-phenylalanine. Chemical structures are shown below Table 1.
The D-alanine substituted, biotin-PEG3-modified macrocycles were tested in the IDO1 ELISA (Affinity assay). For these assays, a dilution series of His-tagged IDO1 human recombinant protein was captured using macrocycles immobilized on a NEUTRAVIDIN®-coated plate.

recombinant human IDO1 = biological target: T2, recombinant human IDO1 (Homo sapiens, UniProt P14902); experiment: IDO1 Fluorogenic Inhibitor Screening Assay (enzyme inhibition); type: biochemical
T2 construct: purchased BPS Biosciences 72037
Protocol: The IDO1 Fluorogenic Inhibitor Screening Assay Kit (72037, BPS Biosciences) was used to measure the enzyme inhibition of human IDO1 in the presence of macrocyclic peptide ligands. IDO1 catalyzes the conversion of the essential amino acid L-tryptophan (L-Trp) to N-formylkynurenine (NFK). In the assay, the test inhibitor and enzyme were added to a sample containing L-Trp substrate. After incubation for 1 h at room temperature, 20 μL Fluorescence Solution was added and incubated at 37° C. for 4 h to produce a fluorescent product. Activity was measured by reading sample fluorescence at λ=510 nm following excitation of the reaction product at λ=400 nm.

T2 sequence (P14902 whole entry): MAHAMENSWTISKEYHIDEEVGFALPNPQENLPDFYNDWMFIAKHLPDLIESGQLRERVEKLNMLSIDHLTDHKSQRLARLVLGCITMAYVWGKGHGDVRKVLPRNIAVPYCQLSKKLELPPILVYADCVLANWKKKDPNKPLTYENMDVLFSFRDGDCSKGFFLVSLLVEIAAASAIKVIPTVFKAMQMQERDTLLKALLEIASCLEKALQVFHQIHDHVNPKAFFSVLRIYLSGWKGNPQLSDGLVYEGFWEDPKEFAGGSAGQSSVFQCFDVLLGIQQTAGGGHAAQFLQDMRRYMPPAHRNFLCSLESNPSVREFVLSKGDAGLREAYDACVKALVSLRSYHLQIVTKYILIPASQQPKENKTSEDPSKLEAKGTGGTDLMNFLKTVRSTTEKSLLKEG
T1 sequence (P14902 whole entry): as above

Compound: C[C@H]1NC(=O)[C@@H](CCCNC(=N)N)NC(=O)[C@@H](Cc2c[nH]c3ccccc23)NC(=O)[C@@H](NC(=O)COCCOCCOCCNC(=O)CCCC[C@H]2SC[C@H]3NC(=O)N[C@H]32)Cc2cn(nn2)CCCC[C@@H](C(N)=O)NC(=O)[C@@H](Cc2ccc(O)cc2)NC1=O [wray, Biotin-PEG3-Cy(wray)] ({Biotinyl(3aR,4R,6aS)-AEEEA}-[Pra][dW][dR][dA][dY][Lys(N3)]-NH2; triazole 1-6)
Binding to human IDO1 by ELISA, in words [1]: less potent binders

EC50 ([1]; read-out: Binding affinity (EC50)): 18 nM
Compound: CC(=O)N[C@H]1Cc2cn(nn2)CCCC[C@@H](C(N)=O)NC(=O)[C@@H](Cc2ccc(C)cc2)NC(=O)CNC(=O)[C@@H](C(C)(C)C)NC(=O)[C@@H](Cc2ccc(Oc3ccccc3)cc2)NC(=O)[C@@H](Cc2c[nH]c3ccccc23)NC1=O [w(Ph-Tyr)(Me-Val)G(Me-Phe)] (Ac-[Pra][dW][X6][dTle]G[dPhe(4-Me)][Lys(N3)]-NH2; triazole 1-7)

Compound: PEG4
IDO1 inhibition potency relative to the small molecule (Inh) alone, in words (recombinant human IDO1): less active than the small molecule alone

Compound: Inh-PEG6-wyvay ([dW][dY][dV][dA][dY]; also: IDO1 inhibitor via PEG6 linker)
IDO1 inhibition potency relative to the small molecule (Inh) alone, in words (recombinant human IDO1): an order of magnitude more potent than the small molecule

IC50 (recombinant human IDO1; N-methylated heterobiligands, PEG6 linker, read-out: IC50): 1460 nM | IC50 (recombinant human IDO1; Table 15, read-out: Inhibition Recombinant IDO1 IC50): 1460 nM
Compound: CC(C)[C@@H]1C(=O)N[C@H](C)C(=O)N[C@H](Cc2ccc(O)cc2)C(=O)N[C@H](C(N)=O)CCCCn2cc(nn2)C[C@H](NC(=O)CCOCCOCCOCCOCCOCCOCCNC(=O)CSc2nonc2/C(=N/O)Nc2ccc(F)c(Br)c2)C(=O)N[C@H](Cc2c[nH]c3ccccc23)C(=O)N[C@H](Cc2ccc(O)cc2)C(=O)N1C [Inh-PEG6-wy(N-Me-v)ay] ({X1-PEG6}-[Pra][dW][dY][dNMeV][dA][dY][Lys(N3)]-NH2; triazole 1-7)

EC50 ([1]; 2 μM biotinylated macrocycle immobilized, human IDO1 titrated 200 to 0 nM, read-out: EC50, sandwich ELISA for human IDO1 protein against biotin-PEG3-modified macrocycle): 68 nM
Compound: N=C(N)NCCC[C@H]1NC(=O)[C@H](Cc2ccc(F)cc2)NC(=O)[C@@H](Cc2c[nH]cn2)NC(=O)[C@@H](CO)NC(=O)[C@@H](CC(N)=O)NC(=O)[C@@H](NC(=O)COCCOCCOCCNC(=O)CCCC[C@H]2SC[C@H]3NC(=O)N[C@H]32)Cc2cn(nn2)CCCC[C@@H](C(N)=O)NC1=O [nsh(F-Phe)r, biotin-PEG3-Cy(nsh(F-Phe)r)] ({Biotinyl(3aR,4R,6aS)-AEEEA}-[Pra][dN][dS][dH][Phe(4-F)][dR][Lys(N3)]-NH2; triazole 1-7)

Compound: CC(C)[C@H]1NC(=O)[C@@H](Cc2ccc(O)cc2)NC(=O)[C@@H](Cc2c[nH]c3ccccc23)NC(=O)[C@@H](NC(=O)COCCOCCOCCOCCOCCNC(=O)CSc2nonc2/C(=N/O)Nc2ccc(F)c(Br)c2)Cc2cn(nn2)CCCC[C@@H](C(N)=O)NC(=O)[C@@H](Cc2ccc(O)cc2)NC(=O)[C@@H](C)NC1=O [Inh-PEG5-wyvay] (X1-[NH(CH2CH2O)5CH2CO][Pra][dW][dY][dV][dA][dY][Lys(N3)]-NH2; triazole 2-8)
IDO1 inhibition potency relative to the small molecule (Inh) alone, in words (recombinant human IDO1): less active than the small molecule alone

Compound: N=C(N)NCCC[C@H]1NC(=O)[C@@H](Cc2ccc(O)cc2)NC(=O)[C@@H](Cc2c[nH]c3ccccc23)NC(=O)[C@@H](NC(=O)CCOCCOCCOCCOCCOCCOCCOCCOCCNC(=O)CSc2nonc2/C(=N/O)Nc2ccc(F)c(Br)c2)Cc2cn(nn2)CCCC[C@@H](C(N)=O)NC(=O)[C@@H](Cc2ccc(O)cc2)NC1=O [Inh-PEG8-wyry] ({X1-PEG8}-[Pra][dW][dY][dR][dY][Lys(N3)]-NH2; triazole 1-6)
IDO1 inhibition potency relative to the small molecule (Inh) alone, in words (recombinant human IDO1): significantly less potent than Inh alone

Compound: NC(=O)[C@@H]1CCCCn2cc(nn2)C[C@H](NC(=O)COCCOCCOCCNC(=O)CCCC[C@@H]2SC[C@@H]3NC(=O)N[C@@H]32)C(=O)N[C@H](CO)C(=O)N[C@H](Cc2c[nH]c3ccccc23)C(=O)N[C@H](Cc2c[nH]c3ccccc23)C(=O)N[C@@H](Cc2ccc(F)cc2)C(=O)N1 [sww(F-Phe), Biotin-PEG3-Cy(sww(F-Phe))] ({Biotin-AEEEA}-[Pra][dS][dW][dW][Phe(4-F)][Lys(N3)]-NH2; triazole 1-6)
Binding to human IDO1 by ELISA, in words [1]: superior to the other 4-mers generated
